From patent US20240415752A1, “A personal care composition comprising vitamin K2 and hydroxystearic acid” (Conopco, Inc., d/b/a UNILEVER, priority 2021, published 2024) come the findings set out here.

For this experiment, the system named is Normal human epidermal melanocytes (NHEM). Briefly: Melanin inhibition rate in UVB-irradiated melanocytes. Format: cell-based. The following applies: for Melanin inhibition rate (% inhibition against UV): NHEM, UVB 14 mJ/cm^2 every 24 h, 72 hours treatment, active concentration (wt %) as in table, melanin normalized to relative cell viability; for Boost of efficacy of Vitamin K2 (melanin inhibition), in words: combination with Encap MK7 (0.0024%) in NHEM. As to the method:
Effect of actives like 12HSA, 4-HR (4-hexyl resorcinol) and Encap MK7 (encapsulated Vitamin K2 of the MK-7 type) were tested individually and in combination. The protocol for the invitro assay is summarized below:
Normal human epidermal melanocytes (NHEM) (Biocell, Xi'an, China) were grown in melanocyte growth medium (MGM) with human melanocyte growth supplement (both from Promocell, Germany). NHEM cells were seeded at a density of 7×10^4 cells in 2 mL MGM/well in 6-well plates and incubated for 24 hours in an incubator at 37° C. with 5% CO2. When reaching 50% confluency, cells were irradiated with UVB at 14 mJ/cm^2 and after UV irradiation, media was replaced with fresh media containing test materials. Every 24 hours in the following 72 hours, the cells were irradiated with UVB again, and the treatment were refreshed.
At the end of the 72 hours incubation period, cell viability was determined using the Alamar Blue method. Briefly, cells were washed twice with phosphate buffered saline (PBS) solution. Freshly prepared 10% Alamar Blue working solution was added into each well including the blank control wells without cells. Plates were incubated for 1 hour at 37° C. in the CO2 incubator. The Alamar Blue solution was then transferred to a 96-well plate to check fluorescence intensity at Ex/Em 530 nm/590 nm using a fluorescent plate reader.
After cell viability evaluation, cells were further washed with PBS for twice and the cells were detached with 0.25% trypsin and collected with centrifugation. The cell pellet was added with a mixed solution (H2O:EtOH:Et2O=2:5:5 v/v) and the mixture was vortexed and left stand still for 30 min. Then the mixture was centrifuged at 1000 r/min for 10 min. The lower fraction was collected and further extracted with a solution containing 10% (v/v) DMSO and 1 M NaOH and incubated at 80° C. in a water bath for 40 minutes. Melanin standard solution was prepared in similarly by adding the same DMSO/NaOH mixed solution to the commercially sourced melanin and incubated at 80° C. for 40 minutes. The extracted melanin and the serially diluted melanin standard solution was then transferred to a 96-well plate and the absorbance at 405 nm was detected using a plate reader. The melanin content was calculated from the melanin standard curve. The melanin concentrations (μg/mL) were then normalized to the relative cell viability. The melanin inhibition rates were calculated using the following equation.

Molecules are shown by their SMILES.

As to `CCCCCCC(O)CCCCCCCCCCC(=O)O` (stereo not shown) [A, 12-hydroxystearic acid], the “Melanin inhibition rate (% inhibition against UV)” value was determined as 25.3% and the “Boost of efficacy of Vitamin K2 (melanin inhibition), in words” value was “able to boost efficacy of Vitamin K2”.

As for `CCCCCCc1ccc(O)cc1O` [C, 4-hexyl resorcinol], the “Melanin inhibition rate (% inhibition against UV)” value is listed as 38.5% and the “Boost of efficacy of Vitamin K2 (melanin inhibition), in words” value was “does not do so”.
